According to patent US20210393623A1 (Jacobio Pharmaceuticals Co., Ltd., priority 2018, published 2021):

target: T1, SHP2 (Homo sapiens, UniProt Q06124); experiment: Phosphatase Assay (Single Dose Inhibition); assay type: biochemical; details: compound at 0.02 μM (20nM); DiFMUP substrate 12 μM; SHP2 0.5 nM activated with dPEG8 peptide; DMSO control set to 100%; triplicate
T1 sequence (Q06124 1-593): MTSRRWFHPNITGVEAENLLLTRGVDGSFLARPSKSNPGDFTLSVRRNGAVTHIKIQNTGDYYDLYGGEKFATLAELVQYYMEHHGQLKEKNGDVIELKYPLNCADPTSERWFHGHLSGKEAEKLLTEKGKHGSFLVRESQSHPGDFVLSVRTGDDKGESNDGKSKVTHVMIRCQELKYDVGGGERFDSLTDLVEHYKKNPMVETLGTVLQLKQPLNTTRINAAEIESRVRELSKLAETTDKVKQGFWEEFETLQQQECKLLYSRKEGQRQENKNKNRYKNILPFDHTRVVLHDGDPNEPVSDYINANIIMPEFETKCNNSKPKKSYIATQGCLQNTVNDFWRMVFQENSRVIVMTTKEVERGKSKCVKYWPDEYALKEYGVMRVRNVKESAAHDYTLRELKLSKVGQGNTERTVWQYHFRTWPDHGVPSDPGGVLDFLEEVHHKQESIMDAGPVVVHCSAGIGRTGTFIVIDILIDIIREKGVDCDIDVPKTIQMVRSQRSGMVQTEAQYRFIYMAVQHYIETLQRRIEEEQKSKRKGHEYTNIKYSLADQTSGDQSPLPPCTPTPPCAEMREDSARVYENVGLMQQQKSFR
Protocol: Phosphatase Assay (Single Dose Inhibition) Assay Protocol: For single dose inhibition assays using 6,8-difluoro-4-methylumbelliferyl phosphate (DiFMUP) as a substrate, SHP2 samples (diluted to 0.5 nM in reaction buffer) were incubated with dPEG8 peptide for 30 min in reaction buffer[60 mM 3,3-dimethyl glutarate (pH7.2), 75 mM NaCl, 75 mM KCl, and 1 mM EDTA, 0.05% Tween 20, 2mM dithiothreitol (DTT) ] to active the PTP. DMSO [0.5% (v/v)] or compounds (20nM) were added to the mixture and incubated for 30 min at room temperature. Reactions were initiated by the addition of DiFMUP (12 μM; total reaction volume of 100 μL), and the fluorescence (excitation at 340 nm, emission at 450 nm) of the resulting solutions was measured on a 2104-0020 EnVision Xcite Multilabel Reader (PerkinElmer) after 30min. The experiment is carried out in triplicate. The value for the control sample (DMSO) was set to 100%, and the values for the compound-treated samples were expressed as activity relative to the control sample.

| inhibition at 0.02 µM [%] | Structure (SMILES) |
| --- | --- |
| 61 | COc1nccc(Sc2cnc(N3CCC4(CC3)Cc3ccc(SC)cc3[C@H]4N)cn2)c1Cl [Example 19, (S)-1′-(5-((3-chloro-2-methoxypyridin-4-yl)thio)pyrazin-2-yl)-6-(methylthio)-1,3-dihydrospiro[indene-2,4′-piperidin]-1-amine] |
| 74 | Cc1nc(N2CCC3(CC2)Cc2ncccc2[C@H]3N)c(O)nc1-c1cccc(Cl)c1Cl [Example 28, (S)-3-(5-amino-5,7-dihydrospiro[cyclopenta[b]pyridine-6,4′-piperidin]-1′-yl)-6-(2,3-dichlorophenyl)-5-methylpyrazin-2-ol] |
| 87 | Cc1nc(N2CCC3(CC2)Cc2ccccc2[C@H]3N)c(CO)nc1Sc1ccnc(N)c1Cl [Example 24, (S)-(3-(1-amino-1,3-dihydrospiro[indene-2,4′-piperidin]-1′-yl)-6-((2-amino-3-chloropyridin-4-yl)thio)-5-methylpyrazin-2-yl)methanol] |
